Values quoted from earlier work in EP4302755B1, “PALBOCICLIB FORMULATION CONTAINING AN AMINO ACID” (Lotus Pharmaceutical Co., Ltd., priority 2022, dated 2024).
Where two headings read alike, the source gives them in different places.

Experiments:
[1] = at low pH (2.1-4.5)

Which results are given for CC(=O)c1c(C)c2cnc(Nc3ccc(N4CCNCC4)cn3)nc2n(C2CCCC2)c1=O [Palbociclib]?
pKa (the pyridine nitrogen): ~4.1; pKa (the secondary piperazine nitrogen): approximately 7.3; solubility [1]: water soluble
